Molecular target: T1, AxNiR (Achromobacter xylosoxidans, UniProt O68601)
T1 construct: gene nir; two-domain copper nitrite reductase, homotrimer
Test: continuous-wave EPR of T2Cu; cryoreduction-EPR with annealing
Format: binding
Details: oxidized enzyme; T2Cu active site; EPR at 20 K

T1 sequence (O68601 entry or part of it): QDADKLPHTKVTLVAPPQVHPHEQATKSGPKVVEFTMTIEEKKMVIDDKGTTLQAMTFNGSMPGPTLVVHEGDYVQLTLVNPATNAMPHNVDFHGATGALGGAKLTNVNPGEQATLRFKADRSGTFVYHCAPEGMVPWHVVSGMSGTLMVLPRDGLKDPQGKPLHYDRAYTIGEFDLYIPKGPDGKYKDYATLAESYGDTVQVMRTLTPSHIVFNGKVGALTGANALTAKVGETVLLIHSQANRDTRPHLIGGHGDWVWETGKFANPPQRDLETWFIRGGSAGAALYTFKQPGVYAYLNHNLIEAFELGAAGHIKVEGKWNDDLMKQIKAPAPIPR

`O=NO` [nitrite] was tested, and the “continuous-wave EPR of T2Cu; cryoreduction-EPR with annealing” value was “This is indicative of the nitrite being bound to the catalytic T2Cu site”.

Reference: paper PMC7497095, “Active Intermediates in Copper Nitrite Reductase Reactions Probed by a Cryotrapping‐Electron Paramagnetic Resonance Approach” (Angewandte Chemie (International Ed. in English), 2020)
